Assays:
[1] = target: T1, CDK2 (Homo sapiens, UniProt P24941); assay: CDK protein degradation activity (Western blotting), CDK2; format: cell-based; conditions: MDA-MB-231 cells, 16 hours, Western blot
T1 construct: endogenous in cells; host or cells: MDA-MB-231
Outline: (§1)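 Degradation is judged from CDK2 and CDK9 band intensity relative to tubulin and DMSO-treated cells, after 16 h exposure of MDA-MB-231 cells to three compound concentrations (100 nM, 1 μM, 10 μM).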

[2] = target: T2, CDK9 (Homo sapiens, UniProt P50750); assay: CDK protein degradation activity (Western blotting), CDK9; format: cell-based; conditions: MDA-MB-231 cells, 16 hours, Western blot
T2 construct: endogenous in cells; host or cells: MDA-MB-231
T2 sequence (P50750 whole entry): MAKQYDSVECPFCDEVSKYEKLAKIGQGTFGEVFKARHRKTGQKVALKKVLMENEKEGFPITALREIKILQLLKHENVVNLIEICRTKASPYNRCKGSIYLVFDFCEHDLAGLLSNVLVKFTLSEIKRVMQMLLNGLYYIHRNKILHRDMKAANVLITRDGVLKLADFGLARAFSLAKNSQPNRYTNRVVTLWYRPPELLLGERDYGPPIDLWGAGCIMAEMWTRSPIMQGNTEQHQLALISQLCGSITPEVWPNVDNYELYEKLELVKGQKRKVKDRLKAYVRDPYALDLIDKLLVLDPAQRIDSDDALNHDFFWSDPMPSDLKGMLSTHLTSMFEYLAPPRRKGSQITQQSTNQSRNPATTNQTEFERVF
Outline: as §1

Row | Structure (SMILES) | Enzyme degradation CDK2 (% remaining) @ 0.1 μM [1] [%] | Enzyme degradation CDK2 (% remaining) @ 1 μM [1] [%] | Enzyme degradation CDK2 (% remaining) @ 10 μM [1] [%] | Enzyme degradation CDK9 (% remaining) @ 0.1 μM [2] | Enzyme degradation CDK9 (% remaining) @ 1 μM [2] | Enzyme degradation CDK9 (% remaining) @ 10 μM [2]
1 | Cc1cccc(C(=O)NC2CC(n3cnc4c(Nc5ccc(N6CCN(CC7CCN(C(=O)CNc8ccc9c(c8)C(=O)N([C@H]8CCC(=O)NC8=O)C9=O)CC7)CC6)cc5)ncnc43)C2)n1 (stereo partly drawn) [Compound 92, N-((1s,3s)-3-(6-((4-(4-((1-((2-(2,6-dioxopiperidin-3-yl)-1,3-dioxoisoindolin-5-yl)glycyl)piperidin-4-yl)methyl)piperazin-1-yl)phenyl)amino)-9H-purin-9-yl)cyclobutyl)-6-methylpicolinamide] | 40 | 20 | 20 | 10% | 0% | 0%
2 | Cc1cccc(C(=O)NC2CC(n3cnc4c(Nc5ccc(N6CCN(CC7CCN(C(=O)CNc8cccc9c8C(=O)N([C@H]8CCC(=O)NC8=O)C9=O)CC7)CC6)cc5)ncnc43)C2)n1 (stereo partly drawn) [Compound 93, N-((1s,3s)-3-(6-((4-(4-((1-((2-(2,6-dioxopiperidin-3-yl)-1,3-dioxoisoindolin-4-yl)glycyl)piperidin-4-yl)methyl)piperazin-1-yl)phenyl)amino)-9H-purin-9-yl)cyclobutyl)-6-methylpicolinamide] | 0 | 10 | 10 | 0/0/0% | 0/0/0% | 0/0/0%
3 | Cc1cccc(C(=O)N[C@H]2C[C@@H](n3cnc4c(NCc5cccc(OCCCN6CCN(C(=O)COc7cccc8c7C(=O)N([C@H]7CCC(=O)NC7=O)C8=O)CC6)c5)ncnc43)C2)n1 [Compound 101, N-((1s,3s)-3-(6-((3-(3-(4-(2-((2-(2,6-dioxopiperidin-3-yl)-1,3-dioxoisoindolin-4-yl)oxy)acetyl)piperazin-1-yl)propoxy)benzyl)amino)-9H-purin-9-yl)cyclobutyl)-6-methylpicolinamide] | 70 | 50 | 40 | 80% | 30% | 30%
4 | Cc1cccc(C(=O)N[C@H]2C[C@@H](n3cnc4c(NCc5cccc(OCCCN6CCN(C(=O)CNc7ccc8c(c7)C(=O)N([C@H]7CCC(=O)NC7=O)C8=O)CC6)c5)ncnc43)C2)n1 [Compound 102, N-((1s,3s)-3-(6-((3-(3-(4-((2-(2,6-dioxopiperidin-3-yl)-1,3-dioxoisoindolin-5-yl)glycyl)piperazin-1-yl)propoxy)benzyl)amino)-9H-purin-9-yl)cyclobutyl)-6-methylpicolinamide] | 100 | 70 | 70 | 90% | 20% | 10%
5 | Cc1cccc(C(=O)N[C@H]2C[C@@H](n3cnc4c(NCc5cccc(OCCCN6CCN(C(=O)CNc7cccc8c7C(=O)N([C@H]7CCC(=O)NC7=O)C8=O)CC6)c5)ncnc43)C2)n1 [Compound 103, N-((1s,3s)-3-(6-((3-(3-(4-((2-(2,6-dioxopiperidin-3-yl)-1,3-dioxoisoindolin-4-yl)glycyl)piperazin-1-yl)propoxy)benzyl)amino)-9H-purin-9-yl)cyclobutyl)-6-methylpicolinamide] | 40 | 40 | 60 | 30% | 10% | 10%
6 | Cc1cccc(C(=O)N[C@H]2C[C@@H](n3cnc4c(NCc5ccc(OCCCN6CCN(C(=O)COc7ccc8c(c7)C(=O)N([C@H]7CCC(=O)NC7=O)C8=O)CC6)cc5)ncnc43)C2)n1 [Compound 112, N-((1s,3s)-3-(6-((4-(3-(4-(2-((2-(2,6-dioxopiperidin-3-yl)-1,3-dioxoisoindolin-5-yl)oxy)acetyl)piperazin-1-yl)propoxy)benzyl)amino)-9H-purin-9-yl)cyclobutyl)-6-methylpicolinamide] | 100 | 50 | 40 | 100% | 0% | 0%

Continued, values first:

Row | Enzyme degradation CDK2 (% remaining) @ 0.1 μM [1] [%] | Enzyme degradation CDK2 (% remaining) @ 1 μM [1] [%] | Enzyme degradation CDK2 (% remaining) @ 10 μM [1] [%] | Enzyme degradation CDK9 (% remaining) @ 0.1 μM [2] | Enzyme degradation CDK9 (% remaining) @ 1 μM [2] | Enzyme degradation CDK9 (% remaining) @ 10 μM [2] | Structure (SMILES)
7 | 80 | 60 | 90 | 50% | 10% | 20% | Cc1cccc(C(=O)N[C@H]2C[C@@H](n3cnc4c(NCc5cccc(OCC6CCN(C(=O)COc7ccc8c(c7)C(=O)N([C@H]7CCC(=O)NC7=O)C8=O)CC6)c5)ncnc43)C2)n1 [Compound 94, N-((1s,3s)-3-(6-((3-((1-(2-((2-(2,6-dioxopiperidin-3-yl)-1,3-dioxoisoindolin-5-yl)oxy)acetyl)piperidin-4-yl)methoxy)benzyl)amino)-9H-purin-9-yl)cyclobutyl)-6-methylpicolinamide]
8 | 60 | 40 | 50 | 10% | 0% | 0% | Cc1cccc(C(=O)N[C@H]2C[C@@H](n3cnc4c(NCc5cccc(OCC6CCN(C(=O)CNc7ccc8c(c7)C(=O)N(C7CCC(=O)NC7=O)C8=O)CC6)c5)ncnc43)C2)n1 (stereo partly drawn) [Compound 96, N-((1s,3s)-3-(6-((3-((1-((2-(2,6-dioxopiperidin-3-yl)-1,3-dioxoisoindolin-5-yl)glycyl)piperidin-4-yl)methoxy)benzyl)amino)-9H-purin-9-yl)cyclobutyl)-6-methylpicolinamide]
9 | 70 | 50 | 50 | 70% | 0% | 0% | Cc1cccc(C(=O)N[C@H]2C[C@@H](n3cnc4c(NCc5ccc(OCC6CCN(C(=O)COc7ccc8c(c7)C(=O)N([C@H]7CCC(=O)NC7=O)C8=O)CC6)cc5)ncnc43)C2)n1 [Compound 106, N-((1s,3s)-3-(6-((4-((1-(2-((2-(2,6-dioxopiperidin-3-yl)-1,3-dioxoisoindolin-5-yl)oxy)acetyl)piperidin-4-yl)methoxy)benzyl)amino)-9H-purin-9-yl)cyclobutyl)-6-methylpicolinamide]
10 | 60 | 50 | 100 | 90% | 20% | 0% | Cc1cccc(C(=O)NC2CC(n3cnc4c(NCc5ccc(OCC6CCN(C(=O)COc7cccc8c7C(=O)N([C@H]7CCC(=O)NC7=O)C8=O)CC6)cc5)ncnc43)C2)n1 (stereo partly drawn) [Compound 107, N-((1s,3s)-3-(6-((4-((1-(2-((2-(2,6-dioxopiperidin-3-yl)-1,3-dioxoisoindolin-4-yl)oxy)acetyl)piperidin-4-yl)methoxy)benzyl)amino)-9H-purin-9-yl)cyclobutyl)-6-methylpicolinamide]
11 | 30 | 30 | 60 | 0/0/0% | 0/0/0% | 0/0/0% | Cc1cccc(C(=O)N[C@H]2C[C@@H](n3cnc4c(NCc5ccc(OCC6CCN(C(=O)CNc7ccc8c(c7)C(=O)N([C@H]7CCC(=O)NC7=O)C8=O)CC6)cc5)ncnc43)C2)n1 [Compound 108, N-((1s,3s)-3-(6-((4-((1-((2-(2,6-dioxopiperidin-3-yl)-1,3-dioxoisoindolin-5-yl)glycyl)piperidin-4-yl)methoxy)benzyl)amino)-9H-purin-9-yl)cyclobutyl)-6-methylpicolinamide]
12 | 40 | 60 | 70 | 0/0/0% | 0/0/0% | 0/0/0% | Cc1cccc(C(=O)N[C@H]2C[C@@H](n3cnc4c(NCc5ccc(OCC6CCN(C(=O)CNc7cccc8c7C(=O)N([C@H]7CCC(=O)NC7=O)C8=O)CC6)cc5)ncnc43)C2)n1 [Compound 109, N-((1s,3s)-3-(6-((4-((1-((2-(2,6-dioxopiperidin-3-yl)-1,3-dioxoisoindolin-4-yl)glycyl)piperidin-4-yl)methoxy)benzyl)amino)-9H-purin-9-yl)cyclobutyl)-6-methylpicolinamide]
13 | 100 | 60 | 80 | 90% | 20% | 30% | Cc1cccc(C(=O)NC2CC(n3cnc4c(NCc5ccc(OCC6CCN(c7ccc8c(c7)C(=O)N([C@H]7CCC(=O)NC7=O)C8=O)CC6)cc5)ncnc43)C2)n1 (stereo partly drawn) [Compound 110, N-((1s,3s)-3-(6-((4-((1-(2-(2,6-dioxopiperidin-3-yl)-1,3-dioxoisoindolin-5-yl)piperidin-4-yl)methoxy)benzyl)amino)-9H-purin-9-yl)cyclobutyl)-6-methylpicolinamide]

Reference: US20260125382A1, “COMPOUNDS FOR INHIBITING OR DEGRADING CDK2 AND/OR CDK9 AND MEDICINAL USE THEREOF” (KOREA RESEARCH INSTITUTE OF CHEMICAL TECHNOLOGY, priority 2022, published 2026)
